Our source for the EC50 values is US20240076285A1, “COMPOUNDS AND COMPOSITIONS FOR TREATING CONDITIONS ASSOCIATED WITH STING ACTIVITY” (IFM Due, Inc., priority 2020, published 2024).

Broadly, the EC50 is the midpoint of the concentration-response curve. A low value points to greater potency.

Each structure is given as a SMILES string.

The experiment addresses T1, hSTING (Homo sapiens, UniProt Q86WV6, G230A/H232R/R293Q/R71H).
T1 construct: host or cells: THP1-Dual KO-IFNAR2 cells
In words: STING reporter assay in THP1-Dual KO-IFNAR2 cells (2'3'cGAMP stimulation, luciferase reporter). Format: cell-based. The note with it: 15 μM 2'3'cGAMP, 24 h. As for the experimental part:
STING pathway activation by the compounds described herein was measured using THP1-Dual™ cells (KO-IFNAR2).
THP1-Dual™ KO-IFNAR2 Cells (obtained from invivogen) were maintained in RPMI, 10% FCS, 5 ml P/S, 2 mM L-glut, 10 mM Hepes, and 1 mM sodium pyruvate. Compounds were spotted in empty 384 well tissue culture plates (Greiner 781182) by Echo for a final concentration of 0.0017-100 μM. Cells were plated into the TC plates at 40 μL per well, 2×10E6 cells/mL. For activation with STING ligand, 2′3′cGAMP (MW 718.38, obtained from Invivogen), was prepared in Optimem media.
The following solutions were prepared for each 1×384 plate: • Solution A: 2 mL Optimem with one of the following stimuli: • 60 μL of 10 mM 2′3′cGAMP→150 μM stock • Solution B: 2 mL Optimem with 60 μL Lipofectamine 2000→Incubate 5 min at RT
2 mL of solution A and 2 ml Solution B was mixed and incubated for 20 min at room temperature (RT). 20 μL of transfection solution (A+B) was added on top of the plated cells, with a final 2′3′cGAMP concentration of 15 μM. The plates were then centrifuged immediately at 340 g for 1 minute, after which they were incubated at 37° C., 5% CO2, >98% humidity for 24 h. Luciferase reporter activity was then measured. EC50 values were calculated by using standard methods known in the art.
Luciferase reporter assay: 10 μL of supernatant from the assay was transferred to white 384-plate with flat bottom and squared wells. One pouch of QUANTI-Luc™ Plus was dissolved in 25 mL of water. 100 μL of QLC Stabilizer per 25 mL of QUANTI-Luc™ Plus solution was added. 50 μL of QUANTI-Luc™ Plus/QLC solution per well was then added. Luminescence was measured on a Platereader (e.g., Spectramax I3X (Molecular Devices GF3637001)).
Luciferase reporter activity was then measured. EC50 values were calculated by using standard methods known in the art.
For orientation: In a reporter assay the amount or activity of a reporter protein is the signal.

T1 sequence (Q86WV6 whole entry R71H/G230A/H232R/R293Q): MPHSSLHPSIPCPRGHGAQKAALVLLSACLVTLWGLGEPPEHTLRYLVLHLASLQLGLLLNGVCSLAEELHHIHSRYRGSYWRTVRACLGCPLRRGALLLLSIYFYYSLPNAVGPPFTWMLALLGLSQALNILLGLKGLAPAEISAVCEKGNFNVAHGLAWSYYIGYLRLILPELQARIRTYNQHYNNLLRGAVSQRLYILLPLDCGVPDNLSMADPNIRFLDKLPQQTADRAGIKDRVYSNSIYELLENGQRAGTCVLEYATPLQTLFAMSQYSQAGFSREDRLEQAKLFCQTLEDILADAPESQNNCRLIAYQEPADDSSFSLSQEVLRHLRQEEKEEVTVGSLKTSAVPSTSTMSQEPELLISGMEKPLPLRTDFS

Compound `CC(C)c1cncc(Nc2cc(C#N)nc(Nc3cc(Cl)c4cc[nH]c4c3)c2)c1` [Compound 162, 6-[(4-chloro-1H-indol-6-yl)amino]-4-{[5-(propan-2-yl)pyridin-3-yl]amino}pyridine-2-carbonitrile] returned an EC50 (class symbols) of 0.2 to 1 µM.

Regarding `N#Cc1cc(Nc2cc(F)cc(Cl)c2)cc(Nc2cc(Cl)c3cc[nH]c3c2)n1` [Compound 171, 6-[(4-chloro-1H-indol-6-yl)amino]-4-[(3-chloro-5-fluorophenyl)amino]pyridine-2-carbonitrile], for the setting “class symbols”, the concentration for a half-maximal effect (EC50) was 0.2 to 1 µM.

For the setting “class symbols”, `N#Cc1cc(Nc2ccc3c(c2)CCC3)cc(Nc2ccc3cc[nH]c3c2)n1` [Compound 142, 4-[(2,3-dihydro-1H-inden-5-yl)amino]-6-[(1H-indol-6-yl)amino]pyridine-2-carbonitrile] yielded an EC50 of 0.2 to 1 µM.

In the case of `N#Cc1cc(Nc2ccc3c(c2)OCCO3)cc(Nc2ccc3cc[nH]c3c2)n1` [Compound 144, 4-[(2,3-dihydro-1,4-benzodioxin-6-yl)amino]-6-[(1H-indol-6-yl)amino]pyridine-2-carbonitrile], the EC50 (class symbols) was in the range of 1 to 5 µM.

With `Fc1cnc(Nc2ccc3cc[nH]c3c2)cc1Nc1ccc2cc[nH]c2c1` [Compound 146], where the note is “class symbols”, the EC50 lay in the range of 1 to 5 µM.

With `Cc1nc2cc(Nc3cc(C#N)nc(Nc4ccc5cc[nH]c5c4)c3)ccc2s1` [Compound 107, 6-[(1H-indol-6-yl)amino]-4-[(2-methyl-1,3-benzothiazol-5-yl)amino]pyridine-2-carbonitrile], the half-maximal effective concentration (EC50) (class symbols) fell in the range of 1 to 5 µM.

Regarding `N#Cc1cc(N2CCC(Oc3ccccc3)CC2)cc(Nc2cc(Cl)c3cc[nH]c3c2)n1` [Compound 155, 6-[(4-chloro-1H-indol-6-yl)amino]-4-(4-phenoxypiperidin-1-yl)pyridine-2-carbonitrile], the EC50 (class symbols) is 0.2 to 1 µM.

Turning to `N#Cc1cc(Nc2ccc3c(c2)CC(=O)N3)cc(Nc2cc(Cl)c3cc[nH]c3c2)n1` [Compound 181, 6-[(4-chloro-1H-indol-6-yl)amino]-4-[(2-oxo-2,3-dihydro-1H-indol-5-yl)amino]pyridine-2-carbonitrile], the EC50 (class symbols) was 1 to 5 µM.

With `N#Cc1cc(N2CCC(Cc3ccccc3)CC2)cc(Nc2cc(Cl)c3cc[nH]c3c2)n1` [Compound 151, 4-(4-benzylpiperidin-1-yl)-6-[(4-chloro-1H-indol-6-yl)amino]pyridine-2-carbonitrile], under “class symbols”, the concentration giving a half-maximal response (EC50) lay in the range of 0.2 to 1 µM.

With `Cc1nc2ccc(Nc3cc(C#N)nc(Nc4cc(Cl)c5cc[nH]c5c4)c3)cc2s1` [Compound 179, 6-[(4-chloro-1H-indol-6-yl)amino]-4-[(2-methyl-1,3-benzothiazol-6-yl)amino]pyridine-2-carbonitrile], for the setting “class symbols”, the concentration for a half-maximal effect (EC50) fell in the range of 0.2 to 1 µM.

Regarding `N#Cc1cc(Nc2ccc(OC(F)F)nc2)cc(Nc2ccc3cc[nH]c3c2)n1` [Compound 126, 4-{[6-(difluoromethoxy)pyridin-3-yl]amino}-6-[(1H-indol-6-yl)amino]pyridine-2-carbonitrile], the EC50 (class symbols) is 0.2 to 1 µM.

Regarding `Cc1nc2cc(Nc3cc(C#N)nc(Nc4cc(Cl)c5cc[nH]c5c4)c3)ccc2s1` [Compound 172, 6-[(4-chloro-1H-indol-6-yl)amino]-4-[(2-methyl-1,3-benzothiazol-5-yl)amino]pyridine-2-carbonitrile], the 50% effective concentration (EC50) (class symbols) was in the range of 0.2 to 1 µM.

Take `COc1cc(Cl)cc(Nc2cc(C#N)nc(Nc3ccc4cc[nH]c4c3)c2)c1` [Compound 112, 4-[(3-chloro-5-methoxyphenyl)amino]-6-[(1H-indol-6-yl)amino]pyridine-2-carbonitrile]: the EC50 (class symbols) is 0.2 to 1 µM.

On to `CC(C)c1cncc(Nc2cc(C#N)nc(Nc3ccc4cc[nH]c4c3)c2)c1` [Compound 124, 6-[(1H-indol-6-yl)amino]-4-{[5-(propan-2-yl)pyridin-3-yl]amino}pyridine-2-carbonitrile], for which, for the setting “class symbols”, the EC50 fell in the range of 0.2 to 1 µM.

Under “numeric bound”, `N#Cc1cc(N2CCC(F)(F)CC2)cc(Nc2ccc3cc[nH]c3c2)n1` [Compound 106, 4-(4,4-difluoropiperidin-1-yl)-6-[(1H-indol-6-yl)amino]pyridine-2-carbonitrile] yielded an EC50 of more than 30 µM.

Turning to `N#Cc1cc(Nc2ccc(OC(F)(F)F)nc2)cc(Nc2ccc3cc[nH]c3c2)n1` [Compound 125, 6-[(1H-indol-6-yl)amino]-4-{[6-(trifluoromethoxy)pyridin-3-yl]amino}pyridine-2-carbonitrile], the EC50 (class symbols) lay in the range of 0.2 to 1 µM.

`N#Cc1cc(Nc2ccc(F)c(F)c2)cc(Nc2cc(Cl)c3cc[nH]c3c2)n1` [Compound 168, 6-[(4-chloro-1H-indol-6-yl)amino]-4-[(3,4-difluorophenyl)amino]pyridine-2-carbonitrile] came in with an EC50 (class symbols) of 0.04 to 0.2 µM.

The compound `N#Cc1cc(Nc2ccc(C(F)(F)F)nc2)cc(Nc2cc(Cl)c3cc[nH]c3c2)n1` [Compound 183, 6-[(4-chloro-1H-indol-6-yl)amino]-4-{[6-(trifluoromethyl)pyridin-3-yl]amino}pyridine-2-carbonitrile] returned an EC50 (class symbols) of 0.2 to 1 µM.

On to `CNC(=O)c1ccc(Nc2cc(C#N)nc(Nc3ccc4cc[nH]c4c3)c2)cc1F` [Compound 132, 4-({2-cyano-6-[(1H-indol-6-yl)amino]pyridin-4-yl}amino)-2-fluoro-N-methylbenzamide], for which the 50% effective concentration (EC50) (class symbols) fell in the range of 5 to 100 µM.

Where the note is “class symbols”, `N#Cc1cc(Nc2cc(F)cc(F)c2)cc(Nc2cc(Cl)c3cc[nH]c3c2)n1` [Compound 170, 6-[(4-chloro-1H-indol-6-yl)amino]-4-[(3,5-difluorophenyl)amino]pyridine-2-carbonitrile] displayed an EC50 of 0.04 to 0.2 µM.

As for `CCc1ccc(Nc2cc(C#N)nc(Nc3cc(Cl)c4cc[nH]c4c3)c2)cn1` [Compound 174, 6-[(4-chloro-1H-indol-6-yl)amino]-4-[(6-ethylpyridin-3-yl)amino]pyridine-2-carbonitrile], the EC50 (class symbols) was 0.2 to 1 µM.

As to `N#Cc1cc(Nc2cncc(C(F)(F)F)c2)cc(Nc2ccc3cc[nH]c3c2)n1` [Compound 141, 6-[(1H-indol-6-yl)amino]-4-{[5-(trifluoromethyl)pyridin-3-yl]amino}pyridine-2-carbonitrile], under “class symbols”, the concentration for a half-maximal effect (EC50) was in the range of 0.2 to 1 µM.

Take `N#Cc1cc(Nc2cncc(F)c2)cc(Nc2cc(Cl)c3cc[nH]c3c2)n1` [Compound 158, 6-[(4-chloro-1H-indol-6-yl)amino]-4-[(5-fluoropyridin-3-yl)amino]pyridine-2-carbonitrile]: the EC50 (class symbols) was 0.2 to 1 µM.

Take `N#Cc1cc(Nc2ccc(OCC(F)(F)F)nc2)cc(Nc2cc(Cl)c3cc[nH]c3c2)n1` [Compound 153, 6-[(4-chloro-1H-indol-6-yl)amino]-4-{[6-(2,2,2-trifluoroethoxy)pyridin-3-yl]amino}pyridine 2-carbonitrile]: where the note is “class symbols”, the EC50 lay in the range of 0.04 to 0.2 µM.

As to `N#Cc1cc(Nc2ccc(C(F)(F)F)c(F)c2)cc(Nc2cc(Cl)c3cc[nH]c3c2)n1` [Compound 159, 6-[(4-chloro-1H-indol-6-yl)amino]-4-{[3-fluoro-4-(trifluoromethyl)phenyl]amino}pyridine-2-carbonitrile], the EC50 (class symbols) is 0.04 to 0.2 µM.

`N#Cc1cc(Nc2ccc(OCC(F)(F)F)nc2)cc(Nc2ccc3cc[nH]c3c2)n1` [Compound 127, 6-[(1H-indol-6-yl)amino]-4-{[6-(2,2,2-trifluoroethoxy)pyridin-3-yl]amino}pyridine-2-carbonitrile] returned an EC50 (class symbols) of 0.2 to 1 µM.

`N#Cc1cc(Nc2cncc(Cl)c2)cc(Nc2ccc3cc[nH]c3c2)n1` [Compound 109, 4-[(5-chloropyridin-3-yl)amino]-6-[(1H-indol-6-yl)amino]pyridine-2-carbonitrile] displayed an EC50 (class symbols) of 1 to 5 µM.

Take `CCc1ccc(Nc2cc(C#N)nc(Nc3ccc4cc[nH]c4c3)c2)cn1` [Compound 111, 4-[(6-ethylpyridin-3-yl)amino]-6-[(1H-indol-6-yl)amino]pyridine-2-carbonitrile]: the half-maximal effective concentration (EC50) (class symbols) is 1 to 5 µM.

As to `N#Cc1cc(Nc2ccc(OC(F)F)nc2)cc(Nc2cc(Cl)c3cc[nH]c3c2)n1` [Compound 182, 6-[(4-chloro-1H-indol-6-yl)amino]-4-{[6-(difluoromethoxy)pyridin-3-yl]amino}pyridine-2-carbonitrile], the EC50 (class symbols) lay in the range of 0.04 to 0.2 µM.

Under “class symbols”, `N#Cc1cc(Nc2ccc(C(F)(F)F)c(Cl)c2)cc(Nc2cc(Cl)c3cc[nH]c3c2)n1` [Compound 173, 6-[(4-chloro-1H-indol-6-yl)amino]-4-{[3-chloro-4-(trifluoromethyl)phenyl]amino}pyridine-2-carbonitrile] yielded a half-maximal effective concentration (EC50) of 0.2 to 1 µM.

Consider `N#Cc1cc(Nc2ccc(Cl)c(Cl)c2)cc(Nc2cc(Cl)c3cc[nH]c3c2)n1` [Compound 154, 6-[(4-chloro-1H-indol-6-yl)amino]-4-[(3,4-dichlorophenyl)amino]pyridine-2-carbonitrile], for which the 50% effective concentration (EC50) (class symbols) lay in the range of 0.04 to 0.2 µM.

As for `N#Cc1cc(Nc2ccc(Cl)c(F)c2)cc(Nc2cc(Cl)c3cc[nH]c3c2)n1` [Compound 165, 6-[(4-chloro-1H-indol-6-yl)amino]-4-[(4-chloro-3-fluorophenyl)amino]pyridine-2-carbonitrile], the EC50 (class symbols) is 0.04 to 0.2 µM.
